From the supplement of paper PMC11451515

Assays:
Details in all cases: 48 h
P12-Ichikawa = test: AUC of viability dose-response curve (% viability x log10 dose units); higher = less sensitive
In short: (§1)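 In 1536-well plates, leukemia cells adapted to each medium (500 or 1000 cells/well) were exposed for 48 h at 37°C to library compounds in DMSO across 11 threefold doses, 47 μM down to 0.79 nM. Viability was read by CellTiter-Glo One luminescence and normalised per plate to DMSO and cell-free wells. A four-parameter log-logistic fit over log10 doses was integrated by trapezoidal rule. This yielded the area under the curve, with over-full-viability curves scaled and quality-control failures dropped.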

SEM cells [1] = test: as above
In short: as §1

NOMO1 = test: as above
In short: as §1

SEM cells [2] = test: cell viability relative to DMSO control; higher = less cytotoxic
In short: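 Viability was expressed as a per-plate percentage of DMSO wells, with cell-free wells as background. Leukemia cells (NOMO1 or SEM at 500 cells/well, P12-Ichikawa at 1000 cells/well) were adapted for at least four passages in each medium and seeded in 1536-well plates (5 μl). Library compounds in DMSO were pin-dosed over an 11-point threefold series from 47 μM to 0.79 nM, and CellTiter-Glo One luminescence was read after 48 h at 37°C.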

CN(C1CCc2c(c3ccccc3n2CC(=O)O)C1)[S+](=O)([O-])c1ccc(F)cc1 (stereo not drawn)
AUC of viability dose-response curve
Details | NOMO1 | P12-Ichikawa | SEM cells [1]
HPLM + 10% dialyzed FBS | 383 | 399 | 461
RPMI 5 mM glucose + 10% FBS | 392 | 401 | 425
RPMI 5 mM glucose + 10% dialyzed FBS | 392 | 419 | 454

CC(CCc1ccc(O)cc1)NCCc1ccc(O)c(O)c1 (stereo not drawn)
SEM cells [2], HPLM + 10% dialyzed FBS
Details | cell viability [%]
0.000781 µM | 117
0.00234 µM | 113
0.00702 µM | 138
0.0211 µM | 145
0.0632 µM | 133
0.19 µM | 141
0.569 µM | 132
1.71 µM | 128
5.12 µM | 114
15.4 µM | 90.5
46.1 µM | 19.8

AUC of viability dose-response curve
Details | NOMO1 | P12-Ichikawa | SEM cells [1]
HPLM + 10% dialyzed FBS | 463 | 441 | 436
RPMI 5 mM glucose + 10% FBS | 461 | 450 | 415
RPMI 5 mM glucose + 10% dialyzed FBS | 452 | 453 | 439

C\C1=N\N(C(=O)C1)C2=CC=CC=C2
cell viability [%], SEM cells [2]
Details | HPLM + 10% dialyzed FBS | RPMI 5 mM glucose + 10% FBS
0.000781 µM | 102 | 113
0.00234 µM | 104 | 121
0.00702 µM | 121 | 129
0.0211 µM | 136 | 119
0.0632 µM | 130 | 130
0.19 µM | 121 | 117
0.569 µM | 112 | 121
1.71 µM | 130 | 123
5.12 µM | 121 | 132
15.4 µM | 118 | 130
46.1 µM | 111 | 117

AUC of viability dose-response curve
Details | NOMO1 | P12-Ichikawa | SEM cells [1]
HPLM + 10% dialyzed FBS | 467 | 471 | 465
RPMI 5 mM glucose + 10% FBS | 467 | 458 | 465
RPMI 5 mM glucose + 10% dialyzed FBS | 462 | 473 | 473

Cc1ccc(C(N)=O)cc1Nc1nccc(-c2cn(C(C)C)c3cnccc23)n1
cell viability [%], SEM cells [2]
Details | HPLM + 10% dialyzed FBS | RPMI 5 mM glucose + 10% dialyzed FBS
0.000781 µM | 99 | 109
0.00234 µM | 118 | 128
0.00702 µM | 113 | 124
0.0211 µM | 111 | 113
0.0632 µM | 100 | 113
0.19 µM | 88 | 87.3
0.569 µM | 75 | 64.1
1.71 µM | 80 | 71
5.12 µM | 61.4 | 52.5
15.4 µM | 29 | 34.8
46.1 µM | 16.7 | 12.7

AUC of viability dose-response curve
Details | HPLM + 10% dialyzed FBS | RPMI 5 mM glucose + 10% FBS | RPMI 5 mM glucose + 10% dialyzed FBS
P12-Ichikawa | 463 | 459 | 451
SEM cells [1] | 356 | 342 | 326
